The record followed here is PubChem BioAssay (NCI).

Common to all, as to test: NCI tumour cell line growth inhibition, 48 h
The subject of assay [1] is NCI-H460 lung.
In assay [2] the test system is SF-268 CNS.
In assay [3] the test system is IGROV1 ovarian.
Assay [4] concerns U251 CNS.
In assay [5] the test system is RXF 393 renal.
Assay [6] concerns CCRF-CEM leukemia.
In assay [7] the test system is SN12C renal.
Assay [8] has as its system SNB-19 CNS.
The test system of assay [9] is CAKI-1 renal.
Assay [10] has as its system NCI/ADR-RES ovarian.

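Protocol summary: plate cells (96-well), add compound at 5 concentrations, incubate 48 h, interpolate endpoints linearly. At the GI50, growth is halved. TGI is the concentration that stops growth completely.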 Some results are limits rather than exact numbers.

With `FC(F)(F)c1ccc(-c2ncc(-c3ccc(C(F)(F)F)cc3)c(NCc3cc(C(F)(F)F)cc(C(F)(F)F)c3)n2)cc1`, the GI50 in [1] was 3.72 µM; in [2], 3.98 µM; in assay [3], 9.02 µM; in [4], 3.57 µM; in assay [5], 4.73 µM; in assay [6], 4.34 µM. For the same molecule, the GI50 in assay [7] is 3.65 µM; in assay [8] it was 3.49 µM; in [9] it was 3.36 µM; in assay [10] it was 4.62 µM. Moreover, the TGI in assay [1] was 79.4 µM; in assay [2] it was greater than 100 µM; in assay [3], greater than 100 µM; in assay [4], greater than 100 µM; in assay [5], 74.9 µM; in assay [6], greater than 100 µM. Further, the TGI in assay [7] was greater than 100 µM; in assay [8], greater than 100 µM; in assay [9], 28 µM; in [10], greater than 100 µM.
For `FC(F)(F)c1cc(-c2ncn(/C=C\c3nnco3)n2)cc(C(F)(F)F)c1`, the GI50 is 0.0384 µM in [1]; 0.0462 µM in assay [2]; 0.676 µM in assay [3]; 0.0402 µM in assay [4]; 0.0216 µM in assay [5]; 0.107 µM in assay [6]. Further, the GI50 in assay [7] is 0.417 µM; in assay [8], 0.126 µM; in [9], 0.0497 µM; in assay [10] it was 0.304 µM. In addition, the TGI in assay [2] is 10.1 µM; in [3] it was greater than 100 µM; in [4], 15.6 µM; in [5], 0.11 µM; in [6], greater than 100 µM; in assay [7] it was greater than 100 µM. In addition, the values for the TGI in [8], in assay [9] and in assay [10] were greater than 100 µM, greater than 38.9 µM and greater than 63.5 µM, respectively.
Take `O=C(O)CNCCc1ccccc1`: the TGI in assay [1], in assay [2], in assay [3], in assay [4], in assay [5] and in assay [6] was greater than 100 µM throughout. For the same molecule, the TGI in [7], in assay [8], in assay [9] and in [10] was greater than 100 µM each time.
On to `N#Cc1c2ccccc2c2nnc3ccc(C(F)(F)F)cc3n12`, for which the GI50 in [1] is 28.7 µM; in assay [2] it was 80.7 µM; in assay [3], 47.9 µM; in assay [4], 28.9 µM; in [5], 23.4 µM; in assay [6], 71 µM. Moreover, the GI50 was greater than 100 µM in assay [7], greater than 100 µM in [8], 43.7 µM in assay [9] and 72.7 µM in assay [10]. For the same molecule, the TGI in assay [1] is greater than 100 µM; in assay [2], greater than 100 µM; in assay [3], greater than 100 µM; in [4], greater than 100 µM; in [5], 80.3 µM; in assay [6], greater than 100 µM. The TGI in assay [7], in assay [8], in assay [9] and in [10] was greater than 100 µM each time.
For the molecule `CCCCCCCC(CC(=O)NC(CO)C(=O)NC(CO)CC(C)C)OC(=O)CC(CCCCCCC)OC(=O)CC(CCCCCCC)OC1OC(C)C(O)C(OC2OC(C)C(O)C(O)C2O)C1O` (centres undefined), the TGI came to 19.1 µM in assay [1]; 23.2 µM in assay [2]; 26.4 µM in assay [3]; 24.7 µM in [4]; 31.2 µM in assay [5]; 15 µM in assay [6]. Further, the TGI in assay [7] worked out at 28.7 µM; in [8] it was 26.1 µM; in assay [9], 33.2 µM; in [10], 33.7 µM.
As for `O=C(c1cccs1)c1nc2cc(Cl)ccc2[n+]([O-])c1C(F)(F)F`, the GI50 was 91.9 µM in assay [1]; greater than 100 µM in assay [2]; greater than 100 µM in [3]; greater than 100 µM in assay [4]; 44.3 µM in assay [5]; greater than 100 µM in assay [6]. The GI50 in assay [7], in assay [8], in assay [9] and in assay [10] was greater than 100 µM in each case. The TGI in [1], in assay [2], in assay [3], in assay [4], in assay [5] and in assay [6] was greater than 100 µM in each case. Moreover, the TGI in assay [7], in assay [8], in [9] and in [10] was greater than 100 µM in each case.
On to `CCCCN(CC)CCCCCCCCCCN1CCCc2cc(OC)ccc21`, for which the GI50 in assay [1] was 2.52 µM; in [2], 6.52 µM; in assay [3], 3.18 µM; in assay [4] it was 2.93 µM; in [5], 2.34 µM; in assay [6], 3 µM. Besides, the GI50 was 3.36 µM in assay [7], 4.01 µM in [8], 2.13 µM in assay [9] and 2.07 µM in assay [10]. In addition, the TGI worked out at 6.6 µM in assay [1]; 32.1 µM in assay [2]; 12.9 µM in assay [3]; 7.56 µM in assay [4]; 4.93 µM in [5]; 12.5 µM in [6]. Also, the TGI in assay [7] was 15.3 µM; in assay [8], 18.8 µM; in assay [9], 7.47 µM; in assay [10] it was 6.15 µM.
As to `CCN1C(=O)N(CC)C2C1NC(=S)N2/N=C/C=C/c1ccccc1OC` (centres undefined), the GI50 was 0.037 µM in assay [1]; 0.0535 µM in assay [2]; 0.0411 µM in assay [3]; 0.0427 µM in [4]; 0.0521 µM in assay [5]; 0.0373 µM in assay [6]. Moreover, the GI50 is 0.0494 µM in [7], 0.0482 µM in assay [8], 0.0514 µM in assay [9] and 0.0311 µM in assay [10]. In addition, the TGI in assay [1], in [2], in assay [3], in assay [4], in [5] and in assay [6] was greater than 100 µM throughout. Besides, the TGI in assay [7], in [8], in assay [9] and in assay [10] was greater than 100 µM in each case.
